Legend:
[1] = biological target: T1, GLS1 (purified recombinant human GAC) (Homo sapiens, UniProt O94925); experiment: GLS1 enzymatic activity assay (dual-coupled, Amplex UltraRed/resorufin); type: biochemical
T1 sequence (O94925 55-598 isoform O94925-3 limits assumed): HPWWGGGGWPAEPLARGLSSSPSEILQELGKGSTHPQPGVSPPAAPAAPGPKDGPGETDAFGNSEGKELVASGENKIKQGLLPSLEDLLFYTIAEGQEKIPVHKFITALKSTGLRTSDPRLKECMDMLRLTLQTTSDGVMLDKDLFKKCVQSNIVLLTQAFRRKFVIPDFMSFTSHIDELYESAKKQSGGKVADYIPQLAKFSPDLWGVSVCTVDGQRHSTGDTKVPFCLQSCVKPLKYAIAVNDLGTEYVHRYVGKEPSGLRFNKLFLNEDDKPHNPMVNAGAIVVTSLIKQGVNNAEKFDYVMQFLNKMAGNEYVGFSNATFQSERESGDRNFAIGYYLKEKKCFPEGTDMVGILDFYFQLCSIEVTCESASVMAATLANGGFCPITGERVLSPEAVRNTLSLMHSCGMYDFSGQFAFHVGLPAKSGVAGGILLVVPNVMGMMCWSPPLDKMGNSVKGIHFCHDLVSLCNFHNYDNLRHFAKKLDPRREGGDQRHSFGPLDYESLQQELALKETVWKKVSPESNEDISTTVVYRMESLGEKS
Procedure: GLS1 Enzymatic Activity Assay
The inhibition of purified recombinant human GAC by varying concentrations of inhibitors is assessed via a dual-coupled enzymatic assay. The glutamate produced by the glutaminase reaction is used by glutamate oxidase to produce α-ketoglutarate, ammonia, and hydrogen peroxide, with this hydrogen peroxide subsequently being used by horseradish peroxidase to produce resorufin in the presence of Amplex UltraRed. The assay buffer consisted of 50 mM Hepes (pH 7.4), 0.25 mM EDTA and 0.1 mM Triton X-100. GAC was incubated with potassium phosphate (10 minutes at room temperature) prior to incubation with inhibitor (10 minutes at room temperature). The final reaction conditions were as follows: 2 nM GAC, 50 mM potassium phosphate, 100 mU/mL glutamate oxidase (Sigma), 1 mM glutamine (Sigma), 100 mU/mL horseradish peroxidase (Sigma), 75 μM Amplex UltraRed (Life Technologies), and 1% (v/v) DMSO. The production of resorufin was monitored on a Perkin Elmer Envision plate reader (excitation 530 nm, emission 590 nm) either in a kinetics or endpoint mode (at 20 minutes). IC50 values were calculated using a four-parameter logistic curve fit.

A549 cells = experiment: A549 proliferation (viability) assay, Cell Titer Fluor, 72 hours; type: cell-based; details: Homo sapiens
Procedure: A549 cells were routinely maintained in RPMI 1640 media (Gibco catalog number 11875-093) supplemented with 10% dialyzed fetal bovine serum using a humidified incubator (37° C., 5% CO2 and ambient O2). In preparation for the viability assay, cells were inoculated into 384-well black CulturPlates (Perkin Elmer) at a density of 1000 cells/well in a volume of 40 uL. Following a 24-hour incubation at 37° C., 5% CO2 and ambient O2, cells were treated with compound (10 uL) in a final DMSO concentration of 0.5% (v/v). The microplates were then incubated for 72 hours (37° C., 5% CO2 and ambient O2). Cell Titer Fluor (Promega) was subsequently added (10 uL of 6× reagent) and mixed for 15 minutes at room temperature. The plates were then incubated for 30 minutes (37° C., 5% CO2 and ambient O2) and fluorescence was subsequently read on the Perkin Elmer Envision plate reader. EC50 values were calculated using a four-parameter logistic curve fit.

| IC50 [1] [µM] | EC50 (A549 cells) [µM] | Structure (SMILES) |
| --- | --- | --- |
| < 0.1 | < 0.1 | O=C(Nc1ccn(CCC(F)Cn2cc(C(=O)NCc3cc(OC(F)(F)F)ccc3F)nn2)c(=O)c1F)C(=O)N1CCC[C@H](C(F)(F)F)C1 (mixture of isomers) [Example 435] |
| < 0.1 | < 0.1 | CC(=O)OC(C(=O)Nc1ccn(CC[C@@H](F)Cn2cc(C(=O)NCc3cccc(OC(F)(F)F)c3)nn2)c(=O)c1F)c1ccccc1 (stereo in doubt) [Example 306, (R)-[(3-fluoro-1-{3-fluoro-4-[4-({[3-(trifluoromethoxy)phenyl]methyl}carbamoyl)-1H-1,2,3-triazol-1-yl]butyl}-2-oxo-1,2-dihydropyridin-4-yl)carbamoyl](phenyl)methyl acetate] |
| < 0.1 | 0.5 to 5 | O=C(Cc1ccccc1)Nc1ccn(CCCCc2nnc(NC(=O)Cc3ccccn3)s2)c(=O)c1 [Example 1, N-(2-oxo-1-(4-(5-(2-(pyridin-2-yl)acetamido)-1,3,4-thiadiazol-2-yl)butyl)-1,2-dihydropyridin-4-yl)-2-phenylacetamide] |
| 0.1 to 0.5 | 0.5 to 5 | O=C(Cc1ccccc1)Nc1ccn(CCCCn2cc(C(=O)NCc3ccccc3)nn2)c(=O)c1 [Example 2, N-benzyl-1-(4-(2-oxo-4-(2-phenylacetamido)pyridin-1(2H)-yl)butyl)-1H-1,2,3-triazole-4-carboxamide] |
| < 0.1 | 0.1 to 0.5 | CC(C)(C)OC(=O)Nc1ccn(CCCCn2cc(C(=O)NCc3cccc(OC(F)(F)F)c3)nn2)c(=O)c1 [Example 3, Tert-butyl(2-oxo-1-(4-(4-((3-(trifluoromethoxy)benzyl)carbamoyl)-1H-1,2,3-triazol-1-yl)butyl)-1,2-dihydropyridin-4-yl)carbamate] |
| 0.5 to 5 | > 5 | Nc1ccn(CCCCn2cc(C(=O)NCc3cccc(OC(F)(F)F)c3)nn2)c(=O)c1 [Example 4, 1-(4-(4-Amino-2-oxopyridin-1(2H)-yl)butyl)-N-(3-(trifluoromethoxy)benzyl)-1H-1,2,3-triazole-4-carboxamide] |
| < 0.1 | 0.1 to 0.5 | CC(C)CC(=O)Nc1ccn(CCCCn2cc(C(=O)NCc3cccc(OC(F)(F)F)c3)nn2)c(=O)c1 [Example 5, 1-(4-(4-(3-methylbutanamido)-2-oxopyridin-1(2H)-yl)butyl)-N-(3-(trifluoromethoxy)benzyl)-1H-1,2,3-triazole-4-carboxamide] |
| < 0.1 | 0.5 to 5 | O=C(Cc1ccccn1)Nc1ccn(CCCCn2cc(C(=O)NCc3cccc(OC(F)(F)F)c3)nn2)c(=O)c1 [Example 6, 1-(4-(2-oxo-4-(2-(pyridin-2-yl)acetamido)pyridin-1 (2H)-yl)butyl)-N-(3-(trifluoromethoxy)benzyl)-1H-1,2,3-triazole-4-carboxamide] |
| < 0.1 | 0.1 to 0.5 | CC(C)COC(=O)Nc1ccn(CCCCn2cc(C(=O)NCc3cccc(OC(F)(F)F)c3)nn2)c(=O)c1 [Example 7, Isobutyl(2-oxo-1-(4-(4-((3-(trifluoromethoxy)benzyl)carbamoyl)-1H-1,2,3-triazol-1-yl)butyl)-1,2-dihydropyridin-4-yl)carbamate] |
| < 0.1 | 0.1 to 0.5 | O=C(NCc1ccccc1)c1ccn(CCCCn2cc(C(=O)NCc3cccc(OC(F)(F)F)c3)nn2)c(=O)c1 [Example 8, N-Benzyl-2-oxo-1-(4-(4-((3-(trifluoromethoxy)benzyl)carbamoyl)-1H-1,2,3-triazol-1-yl)butyl)-1,2-dihydropyridine-4-carboxamide] |
| < 0.1 | 0.5 to 5 | O=C(Cc1cccc(OC(F)(F)F)c1)Nc1ccn(CCCCn2cc(C(=O)NCc3ccccn3)nn2)c(=O)c1 [Example 10, 1-(4-(2-oxo-4-(2-(3-(trifluoromethoxy)phenyl)acetamido)pyridin-1(2H)-yl)butyl)-N-(pyridin-2-ylmethyl)-1H-1,2,3-triazole-4-carboxamide] |
| 0.5 to 5 | > 5 | Cc1ccn(CCCCn2cc(C(=O)NCc3cccc(OC(F)(F)F)c3)nn2)c(=O)c1 [Example 11, 1-(4-(4-methyl-2-oxopyridin-1(2H)-yl)butyl)-N-(3-(trifluoromethoxy)benzyl)-1H-1,2,3-triazole-4-carboxamide] |
| < 0.1 | < 0.1 | O=C(Cc1ccccc1)Nc1ccn(CCC(F)Cn2cc(C(=O)NCc3cc(OC(F)(F)F)ccc3F)nn2)c(=O)c1 (centres unmarked) [Example 12, 1-(2-fluoro-4-(2-oxo-4-(2-phenylacetamido)pyridin-1(2H)-yl)butyl)-N-(2-fluoro-5-(trifluoromethoxy)benzyl)-1H-1,2,3-triazole-4-carboxamide] |
| < 0.1 | < 0.1 | O=C(Cc1ccccc1)Nc1ccn(CC(F)CCn2cc(C(=O)NCc3cc(OC(F)(F)F)ccc3F)nn2)c(=O)c1 (centres unmarked) [Example 13, 1-(3-fluoro-4-(2-oxo-4-(2-phenylacetamido)pyridin-1(2H)-yl)butyl)-N-(2-fluoro-5-(trifluoromethoxy)benzyl)-1H-1,2,3-triazole-4-carboxamide] |
| < 0.1 | < 0.1 | O=C(Cc1ccccc1)Nc1ccn(CCCCc2ccc(NC(=O)Cc3cccc(OC(F)(F)F)c3)nn2)c(=O)c1 [Example 14, N-(2-oxo-1-(4-(6-(2-(3-(trifluoromethoxy)phenyl)acetamido)pyridazin-3-yl)butyl)-1,2-dihydropyridin-4-yl)-2-phenylacetamide] |
| < 0.1 | > 5 | O=C(Cc1ccccc1)Nc1ccn(CCCCn2ccc(NC(=O)Cc3ccccc3)nc2=O)c(=O)n1 [Example 15, N,N′-(butane-1,4-diylbis(2-oxo-1,2-dihydropyrimidine-1,4-diyl))bis(2-phenylacetamide)] |
| < 0.1 | 0.5 to 5 | O=C(Cc1ccccc1)Nc1ccn(CCCCc2nnc(NC(=O)Cc3cccnc3)s2)c(=O)n1 [Example 16, N-(2-oxo-1-(4-(5-(2-(pyridin-3-yl)acetamido)-1,3,4-thiadiazol-2-yl)butyl)-1,2-dihydropyrimidin-4-yl)-2-phenylacetamide] |
| < 0.1 | > 5 | O=C(Cc1ccccc1)Nc1ccn(CCCCc2nnc(NC(=O)[C@@H](O)c3ccccc3)s2)c(=O)n1 [Example 17, (S)-2-hydroxy-N-(5-(4-(2-oxo-4-(2-phenylacetamido)pyrimidin-1(2H)-yl)butyl)-1,3,4-thiadiazol-2-yl)-2-phenylacetamide] |
| 0.1 to 0.5 | > 5 | CC(=O)Nc1ccn(CCCCc2nnc(NC(=O)Cc3ccccc3)s2)c(=O)n1 [Example 18] |
| < 0.1 | 0.1 to 0.5 | O=C(Cc1cccc(OC(F)(F)F)c1)Nc1ccn(CCCCc2nnc(NC(=O)Cc3ccccc3)s2)c(=O)n1 [Example 19, N-(2-oxo-1-{4-[5-(2-phenylacetamido)-1,3,4-thiadiazol-2-yl]butyl}-1,2dihydropyrimidin-4-yl)-2-[3-(trifluoromethoxy)phenyl]acetamide] |
| < 0.1 | < 0.1 | O=C(Cc1ccccc1)Nc1ccc(CCCCn2ccc(NC(=O)Cc3ccccc3)nc2=O)nn1 [Example 20, N-(2-oxo-1-(4-(6-(2-phenylacetamido)pyridazin-3-yl)butyl)-1,2-dihydropyrimidin-4-yl)-2-phenylacetamide] |
| < 0.1 | 0.5 to 5 | O=C(Cc1ccccc1)Nc1ccc(CCCCn2ccc(NC(=O)[C@@H](O)c3ccccc3)nc2=O)nn1 [Example 22, (S)-2-hydroxy-N-(2-oxo-1-(4-(6-(2-phenylacetamido)pyridazin-3-yl)butyl)-1,2-dihydropyrimidin-4-yl)-2-phenylacetamide] |

— patent US20160002204A1 (Board of Regents, The University of Texas System, priority 2014, published 2016)
